Laboratory results taken from US5110976A, “Insecticidal composition comprising more than one active ingredient” (priority 1985, dated 1992).

Assays:
Tribolium confusum [1] = test: Contact test, mixtures of Ia and Ib of various ratio (Table 13); assay type: in vivo, flour beetle (Tribolium confusum)
Description: (§1) The active ingredient is dissolved in a 1:2 mixture of oil and acetone; filter paper discs (Whatman No. 1, diameter 9 cm) are impregnated with the solutions of the corresponding stereoisomers and enantiomer-pairs, respectively. The acetone is allowed to evaporate, whereupon the insects are exposed to filter papers discs placed in Petri-dishes. Three parallels are used on each dose and 15 insects are placed into each Petri-dish. The percental mortality is determined after 24 hours. The corrected percent mortality is calculated by means of the Abbot Formula.
In Table 13 the insecticidal effect of mixtures of enantiomer-pairs Ia and Ib of various ratio is shown on flour beetle (Tribolium confusum). The test method is that disclosed in Example 43.

Colorado potato beetle = test: Topical test on Colorado potato beetle (Table 14); assay type: in vivo, Colorado potato beetle (Leptinotersa decemlineata), imago
Description: In Table 14 the activity on Colorado potato beetle is shown.
The test materials are dissolved in 2-ethoxyethanol (Cellosolve). One 0.3 μl drop of the solution is applied to the abdominal sterna of the imago. The treatment is carried out by using 2 parallels and 10 insects for each dose. […]

T. confusum = test: Activity as function of time, toxic symptoms (Table 16); assay type: in vivo, flour beetle (T. confusum), imagos
Description: as §1
Activity of cypermethrin stereoisomer-pairs as function of time on flour beetle (T. Confusum).
Flour beetle (T. confusum) imagos are exposed in Petri-dishes according to the method described in Example 43. For each dose 3 parallels are used and 15 animals are applied for each parallel test. In each point of time the insects lying on their backs are counted and the percental results are expressed in Table 16.

Musca domestica = test: Filter paper disc contact test (Table 11); assay type: in vivo, house fly (Musca domestica); settings: Musca domestica, 24 h
Description: In Table 1 the activity of various stereoisomers of cypermethrin on the house fly (Musca domestica) is shown.
as §1

Tribolium confusum [2] = test: Contact test on Tribolium confusum (Table 12); assay type: in vivo; settings: Tribolium confusum, 24 h; for mortality at 330 µg/disc: 0.33 mg/disc; for mortality at 1000 µg/disc: 1.00 mg/disc; for mortality at 3000 µg/disc: 3.00 mg/disc
Description: as §1
It appears from Table 12 that the increased activity shown in Example 41 is due to the synergistic effect of the trans-isomers to Tribolium confusum.

## CC1(C)C(C=C(Cl)Cl)C1C(=O)OC(C#N)c1cccc(Oc2ccccc2)c1 (centres unmarked) [5:5]
Tribolium confusum [1]; 0.02 mg/disc, 1440 min
  24 hours' mortality %: 0%
Tribolium confusum [1]; 0.06 mg/disc, 1440 min
  24 hours' mortality %: 43%
Tribolium confusum [1]; Tribolium confusum, 24 h, 0.25 mg/disc
  mortality at 250 µg/disc: 100%
Tribolium confusum [1]; Tribolium confusum, 24 h, 1.00 mg/disc
  mortality at 1000 µg/disc: 100%

## CC1(C)C(C=C(Cl)Cl)C1C(=O)OC(C#N)c1cccc(Oc2ccccc2)c1 (centres unmarked) [Ia:Ib = 3:7]
Tribolium confusum [1]; 0.02 mg/disc, 1440 min
  24 hours' mortality %: 20%
Tribolium confusum [1]; 0.06 mg/disc, 1440 min
  24 hours' mortality %: 81%
Tribolium confusum [1]; 0.25 mg/disc
  24 hours' mortality %: 100%
Tribolium confusum [1]; 1.00 mg/disc
  24 hours' mortality %: 100%
Colorado potato beetle; 0.05 μg/beetle
  24 hours' mortality %: 45%
Colorado potato beetle; 0.10 μg/beetle
  24 hours' mortality %: 65%
Colorado potato beetle; 0.20 μg/beetle
  24 hours' mortality %: 75%
Colorado potato beetle; 0.40 μg/beetle
  24 hours' mortality %: 85%

## CC1(C)[C@H](C(=O)O[C@H](C#N)c2cccc(Oc3ccccc3)c2)[C@@H]1C=C(Cl)Cl [If]
T. confusum; 30 minutes
  % of insects showing toxic symptoms: 0%
T. confusum; 30 minutes, 0.33 mg/disc
  % of insects showing toxic symptoms: 0%
T. confusum; 30 minutes, 1.00 mg/disc
  % of insects showing toxic symptoms: 48%
T. confusum; 30 minutes, 3.00 mg/disc
  % of insects showing toxic symptoms: 64%
T. confusum; 60 minutes
  % of insects showing toxic symptoms: 0%
T. confusum; 60 minutes, 0.33 mg/disc
  % of insects showing toxic symptoms: 5%
T. confusum; 60 minutes, 1.00 mg/disc
  % of insects showing toxic symptoms: 84%
T. confusum; 60 minutes, 3.00 mg/disc
  % of insects showing toxic symptoms: 100%
T. confusum; 120 minutes
  % of insects showing toxic symptoms: 0%
T. confusum; 120 minutes, 0.33 mg/disc
  % of insects showing toxic symptoms: 40%
T. confusum; 120 minutes, 1.00 mg/disc
  % of insects showing toxic symptoms: 100%
T. confusum; 120 minutes, 3.00 mg/disc
  % of insects showing toxic symptoms: 100%
T. confusum; 180 minutes
  % of insects showing toxic symptoms: 39%
T. confusum; 180 minutes, 0.33 mg/disc
  % of insects showing toxic symptoms: 61%
T. confusum; 180 minutes, 1.00 mg/disc
  % of insects showing toxic symptoms: 100%
T. confusum; 180 minutes, 3.00 mg/disc
  % of insects showing toxic symptoms: 100%
Musca domestica; 0.04 mg/disc
  mortality at 40 µg/disc: 68%
Musca domestica; 0.11 mg/disc
  mortality at 110 µg/disc: 93%
Musca domestica; 0.33 mg/disc
  mortality at 330 µg/disc: 100%
Musca domestica; 1.00 mg/disc
  mortality at 1000 µg/disc: 100%
Musca domestica; 3.00 mg/disc
  mortality at 3000 µg/disc: 100%
Tribolium confusum [2]
  mortality at 330 µg/disc: 100%
  mortality at 1000 µg/disc: 100%
  mortality at 3000 µg/disc: 100%

## CC1(C)[C@H](C=C(Cl)Cl)[C@@H]1C(=O)O[C@@H](C#N)c1cccc(Oc2ccccc2)c1 [Ih]
T. confusum; 30 minutes
  % of insects showing toxic symptoms: 0%
T. confusum; 30 minutes, 0.33 mg/disc
  % of insects showing toxic symptoms: 0%
T. confusum; 30 minutes, 1.00 mg/disc
  % of insects showing toxic symptoms: 0%
T. confusum; 30 minutes, 3.00 mg/disc
  % of insects showing toxic symptoms: 0%
T. confusum; 60 minutes
  % of insects showing toxic symptoms: 0%
T. confusum; 60 minutes, 0.33 mg/disc
  % of insects showing toxic symptoms: 0%
T. confusum; 60 minutes, 1.00 mg/disc
  % of insects showing toxic symptoms: 0%
T. confusum; 60 minutes, 3.00 mg/disc
  % of insects showing toxic symptoms: 8%
T. confusum; 120 minutes
  % of insects showing toxic symptoms: 0%
T. confusum; 120 minutes, 0.33 mg/disc
  % of insects showing toxic symptoms: 0%
T. confusum; 120 minutes, 1.00 mg/disc
  % of insects showing toxic symptoms: 0%
T. confusum; 120 minutes, 3.00 mg/disc
  % of insects showing toxic symptoms: 67%
T. confusum; 180 minutes
  % of insects showing toxic symptoms: 0%
T. confusum; 180 minutes, 0.33 mg/disc
  % of insects showing toxic symptoms: 0%
T. confusum; 180 minutes, 1.00 mg/disc
  % of insects showing toxic symptoms: 0%
T. confusum; 180 minutes, 3.00 mg/disc
  % of insects showing toxic symptoms: 88%
Tribolium confusum [2]; 0.11 mg/disc
  mortality at 110 µg/disc: 0%
Tribolium confusum [2]
  mortality at 330 µg/disc: 38%
  mortality at 1000 µg/disc: 80%
  mortality at 3000 µg/disc: 100%
